# Laboratory results from US20160038519A1, “ADMINISTRATION OF KARENITECIN FOR THE TREATMENT OF ADVANCED OVARIAN CANCER, INCLUDING CHEMOTHERAPY-RESISTANT AND/OR THE MUCINOUS ADENOCARCINOMA SUB-TYPES” (BioNumerik Pharmaceuticals, Inc., priority 2014, published 2016).
# Where two headings read alike, the source gives them in different places.
# Experiments:
# [1] = test system: stage III/IV advanced epithelial ovarian cancer resistant or refractory to platinum- and taxane-based regimens; conditions: for CA-125 marker level, low: after reduction; for CA-125 marker level, high: before reduction
# Procedure: Such Phase III clinical trial is sometimes referred to herein as the “Karenitecin Phase III Trial”.
# The Primary Endpoint of the disclosed Karenitecin Phase III Trial was Progression Free Survival (“PFS”); which was defined as the time period from the date of randomization to the date of first radiographically-documented Progressive Disease (“PD”) or date of death due to any cause, taking the event date that occurs first. The date of PD was determined by radiographical objective disease (RECIST) measurement. The Secondary Endpoints of the disclosed Karenitecin Phase III Trial included: (i) Overall Survival (hereinafter “OS”), defined as the time from the date of randomization to the date of death due to any cause; (ii) Incidence of anemia, defined as the proportion of subjects who experience ≧grade 3 anemia based on National Cancer Institute Common Terminology Criteria for Adverse Events (NCI-CTCAE) criteria at any time post-baseline after receiving study treatment; (iii) Incidence of neutropenia (including febrile neutropenia), defined as the proportion of subjects who experience ≧grade 3 neutropenia based on NCI-CTCAE criteria at any time post-baseline after receiving study treatment; and (iv) Incidence of thrombocytopenia, defined as the proportion of subjects who experience ≧grade 3 thrombocytopenia based on NCI-CTCAE criteria at any time post-baseline after receiving study treatment.
# Approximately 80 study centers participated in this clinical study. The primary endpoint was Progression Free Survival (PFS); defined as the time period from the date of randomization to the date of first radiographically documented progressive disease or disease progression (“PD”) or date of death due to any cause, taking the event date that occurs first.
# The primary endpoint was Progression Free Survival (PFS); defined as the time period from the date of randomization to the date of first radiographically documented progressive disease (PD) or date of death due to any cause, taking the event date that occurs first. The date of PD was determined by radiographically objective disease (RECIST) measurement.
# • Overall Survival (OS), defined as the time from the date of randomization to the date of death due to any cause. • Incidence of anemia, defined as the proportion of subjects who experience ≧grade 3 anemia based on National Cancer Institute Common Terminology Criteria for Adverse Events (NCI-CTCAE) criteria at any time post-baseline after receiving study treatment. • Incidence of neutropenia (including febrile neutropenia), defined as the proportion of subjects who experience ≧grade 3 neutropenia based on NCI-CTCAE criteria at any time post-baseline after receiving study treatment. • Incidence of thrombocytopenia, defined as the proportion of subjects who experience ≧grade 3 thrombocytopenia based on NCI-CTCAE criteria at any time post-baseline after receiving study treatment.
# During this period, subjects received either Karenitecin (1.0 mg/m^2/day administered as a 60-minute intravenous infusion) or Topotecan (1.5 mg/m^2/day administered as a 30-minute intravenous infusion) daily for 5 consecutive days, every 21 days (one treatment cycle=21 days).
# beagle dogs = conditions: dog, in vivo, iv
# [2] = Adenocarcinoma (grade ≧2) not otherwise specified, P-value=0.3700
# [3] = ECOG Performance Status 0, P-value=0.0249
# [4] = ECOG Performance Status 2, P-value=0.7481
# [5] = FIGO Stage IIIB, P-value=0.6225
# [6] = FIGO Stage IV, first 254 PFS events, P-value=0.0260
# [7] = Histological Stage: G1-well differentiated, P-value=0.8561
# [8] = Histological Stage: G2-moderately differentiated, P-value=0.2982
# [9] = Histopathology class: serous adenocarcinoma, P-value=0.2829
# [10] = Mucinous adenocarcinoma subtype
# [11] = Ovary as primary site of disease, P-value=0.2606
# [12] = overall trial population, P-value=0.261
compound,measurement,setting,value
"CC[C@@]1(O)C(=O)OCc2c1cc1n(c2=O)Cc2c-1nc1ccccc1c2CC[Si](C)(C)C [Karenitecin, (4S)-4-ethyl-4-hydroxy-11-[2-(trimethylsilyl)ethyl]-1H-pyrano[3′:4′:6,7]indolizino[1,2-b]quinoline-3,14(4H,12H)-dione]",Overall survival hazard ratio,"[1]; Adenocarcinoma (grade ≧2) not otherwise specified, P-value 0.7893",0.898
same,Median PFS advantage in favor of Karenitecin,[1]; [2],2.7 month
same,PFS Hazard Ratio,[1]; [2],0.684
same,PFS Hazard Ratio,"[1]; Best response SD after 6 cycles in a first-line setting, P-value=0.9908",0.992
same,Median PFS advantage in favor of Karenitecin,"[1]; Best response stable disease (SD) after 6 cycles in a first-line setting, P-value=0.9908",3 month
same,Median PFS advantage in favor of Karenitecin,[1]; [3],3.9 month
same,PFS Hazard Ratio,[1]; [3],0.662
same,Median PFS advantage in favor of Karenitecin,[1]; [4],1.5 month
same,PFS Hazard Ratio,[1]; [4],0.896
same,Median PFS advantage in favor of Karenitecin,[1]; [5],4.2 month
same,PFS Hazard Ratio,[1]; [5],0.722
same,Overall survival hazard ratio,"[1]; FIGO Stage IV, P-value 0.4516",0.892
same,Median PFS advantage in favor of Karenitecin,"[1]; FIGO Stage IV, P-value=0.0556",2.7 month
same,PFS Hazard Ratio,"[1]; FIGO Stage IV, P-value=0.0556",0.741
same,Median PFS advantage in favor of Karenitecin,[1]; [6],2.8 month
same,PFS Hazard Ratio,[1]; [6],0.669
same,Overall survival hazard ratio,"[1]; Histological Stage: G1-well differentiated, P-value 0.9612",0.9674
same,Median PFS advantage in favor of Karenitecin,[1]; [7],1.7 week
same,PFS Hazard Ratio,[1]; [7],0.904
same,Median PFS advantage in favor of Karenitecin,[1]; [8],2.5 month
same,PFS Hazard Ratio,[1]; [8],0.835
same,Overall survival hazard ratio,"[1]; Histopathology Class: Undifferentiated carcinoma, P-value 0.6426",0.701
same,Median PFS advantage in favor of Karenitecin (as compared with Topotecan),[1]; Histopathology class: Mucinous adenocarcinoma,2 month
same,Median PFS advantage in favor of Karenitecin,[1]; [9],1.6 month
same,PFS Hazard Ratio,[1]; [9],0.873
same,Median PFS,[1]; [10],approximately 17.8 weeks
same,"Overall survival (OS), third quartile",[1]; [10],35 months
same,Overall survival hazard ratio (Karenitecin vs Topotecan),"[1]; Mucinous adenocarcinoma subtype, P-value 0.7321",0.841
same,Median PFS advantage in favor of Karenitecin,[1]; [11],6.5 week
same,PFS Hazard Ratio,[1]; [11],0.885
same,"CA-125 marker level, low",[1]; another patient,24 U/ML
same,"CA-125 marker level, high",[1]; another patient,237 U/ML
same,Reduction of grade 4 neutropenia in comparison to the Topotecan arm,"[1]; female, human, in vivo",38.2%
same,Reduction of number of grade 3 or 4 anemia events in comparison to the Topotecan arm,"[1]; female, human, in vivo",27.3%
same,Reduction of number of grade 3 or 4 thrombocytopenia events in comparison to the Topotecan arm,"[1]; female, human, in vivo",37.4%
same,Safety concerns noted by the independent DSMB,[1]; in vivo,no safety concerns
same,"CA-125 marker level, high",[1]; one patient,2072 U/ML
same,Median PFS,"[1]; overall trial population, IRC-determined",approximately 24.3 weeks
same,Median PFS advantage in favor of Karenitecin (as compared with Topotecan),[1]; [12],greater than 6 week
same,PFS Hazard Ratio (Karenitecin vs Topotecan),[1]; [12],0.885
same,Median PFS,[1]; refractory or resistant and/or mucinous subpopulation,approximately 26.9 weeks
same,PFS Hazard Ratio (Karenitecin vs Topotecan),"[1]; refractory or resistant and/or mucinous subpopulation, first 254 subjects, P-value=0.0849",0.770
same,Median PFS in favor of Karenitecin (as compared with Topotecan),"[1]; refractory or resistant to platinum/taxane and/or mucinous sub-type subpopulation, first 254 subjects, P-value=0.0849",approximately 8.2 weeks
same,PFS Hazard Ratio,"[1]; resistant subject sub-population, P-value=0.144",0.822
same,"CA-125 marker level, low",[1]; same patient,167 U/ML
same,Toxicities observed,beagle dogs,reversible myelosuppression (predominantly neutropenia)
